Test results from patent US6702803B2, “Multi-step drug dosage forms” (Delsys Pharmaceutical Corporation, priority 2000, dated 2004).

Assay: Compatibility study of Drug A with polymeric films (chromatographic purity on storage)
Type: physicochemical
Settings: HPMC film, HPMC/HPC blend film, polyvinyl alcohol film; 25°C/60% RH, 40°C/75% RH (closed and open bottle), 50°C; 2 to 12 weeks
Protocol: Compatibility studies were conducted to assess the compatibility of Drug A with several polymeric films, to determine an appropriate material for the substrate. The films studied were an HPMC film, an. HPMC/HPC blend film, and a polyvinyl alcohol film. Each film was cut into pieces approximately 0.5 cm square and a piece of each film was placed into a glass bottle. Approximately 500 mg of Drug A was added to each bottle. The bottles were closed with Teflon lined plastic caps. Bottles of Drug A and each of the films separately were prepared and used as controls. The controls and drug/polymer samples were stored in a closed chamber under the following conditions, and tested at the indicated time periods: A) 25° C.±2° C.; 60% RH±5%; tested at 2,4 and 12 weeks; B) 40° C.±2° C.; 75% RH±5%; tested at 2,4 and 12 weeks; C) 40° C.±2 S^C; 75% RH±5%, open bottle; tested at 2, 4 and 12 weeks; and D) 50° C.±2*C.; no humidity control; tested at 2,4, and 8 weeks. At each time point, the samples were tested for chromatographic purity. […] Several dosage forms were made, as outlined in Table 1. “ER” refers to the extended release portion. “HPMC, HPC” refers to a hydroxypropyrmethyl cellulose, hydroxypropyl cellulose copolymer. “PEO” refers to a polyethylene oxide polymer, “HPMC, PEG” refers to hydroxypropylmethyl cellulose containing polyethylene glycol (PEG) plasticizer.

With `Cc1nccn1CC1CCc2c(c3ccccc3n2C)C1=O` (stereo not shown) [Drug A, 1,2,3,9-tetrahydro-9-methyl-3-[(2-methyl-1H-imidazol-1-yl)methyl]-4H-carbazol-4-one] as the compound, how does the “change in chromatographic purity of Drug A stored with polymer films, compared to control samples” value read?
Its value is “no changes in purity”.
